Measured values taken from US20200113901A1, “METHODS OF USING EHMT2 INHIBITORS” (Epizyme, Inc., priority 2017, published 2020).

What was measured:
[1] = system: H3K9me2 (H3 di methyl K9); test: H3K9me2 western blot in Prader Willi Syndrome patient fibroblast cell lines; assay type: cell-based, human; details: PWS patient fibroblast cell lines GM21889 and GM21890; 0.25 μM, 1 μM, 5 μM; 7 days; western blot densitometry; FIG. 1
Procedure: (§1) Fibroblast cell lines were obtained from Coriell Institute (GM21889 and GM21890). Cells were plated in 6 well plates at 0.13 or 0.26 e6 cells per well. Cells were treated for 7 days with 0, 0.25 μM, 1 μM, or 5 μM Compound No. 205 or 4 μM UNC0638 (positive control) with reseeding into 100 mm dishes and retreatment at day 4. On day 7 cells were lysed in 1X RIPA buffer (Millipore, #20-188) with 0.1% SDS and Protease Inhibitor Cocktail tablet (Roche, #04693159001), and sonicated on ice before being spun at 4° C. Clarified supernatant was assayed for protein concentration by BCA (Pierce, #23225). 25 μg of lysate was used for western blots. Antibodies used for Western blotting include H3 (4499; Cell Signaling) at 1:1000, H3K9me2 (ab1220; Abcam) at 1:1000, SNRPN (PA 1775; BosterBio) at 1:1000, and β-actin (ab8224; Abcam) at 1:2500. Imaging was performed using a Licor Odyssey, and changes in the target band were quantified by densitometry. Ratios between H3K9me2 and H3 were calculated and compound treated samples were normalized to controls (DMSO). Increases in SNRPN protein expression was observed upon increasing concentrations of Compound No. 205. See, e.g., FIGS. 1 and 2.

[2] = system: SNRPN protein; test: SNRPN protein induction (western blot) in Prader Willi Syndrome patient fibroblast cell lines; assay type: cell-based, human; details: PWS patient fibroblast cell lines GM21889 and GM21890, increasing concentrations 0.25 μM, 1 μM, 5 μM, 7 days, FIG. 2
Procedure: as §1

SMILES: CNc1cc(C)nc(Nc2ccc(OC)c(OCCCN3CCCC3)c2)n1 [Compound No. 205]
- H3 di methyl K9 (ratio H3K9me2 to H3, normalized to DMSO control) [1]: decrease
- SNRPN protein expression [2]: Increases
